These results are taken from patent US20050107394A1, “Novel use of selective pde5 inhibitors” (priority 2001, published 2005).

Several values for one entry are separate records, joined by “and”; a condition that tells them apart may be missing. Equal entries are not always repeated. Entries after “also recorded” stand apart in the source; their conditions may differ.

The test system of assay [1] is bleomycin-induced pulmonary fibrosis in rabbits. Briefly: Shunting by MIGET in bleomycin-induced pulmonary fibrosis. It counts as in vivo, rabbit. The following applies: for effect on shunting: NO inhaled, sildenafil oral; for shunting (MIGET), level reached: PGI 6 ng/kg/min systemic, NO 20 ppm inhaled, sildenafil 1 mg/kg oral. As to the method:
FIG. 1: Result of determination of shunting with the aid of the model of bleomycin-induced pulmonary fibrosis in rabbits. The measurements by the inert gas exchange method (MIGET) [Wagner et al., J Appl Physiol. 1974;36:588-99] reveal that the shunting was increased by 15% in this model, compared with the untreated control. Systemically administered PGI [6 ng/kg body weight/min] (PGI, prostacyclin) increased the shunting to about 30%. […] Shunting was reduced to 6% by oral administration of the PDE5 inhibitor sidenafil [1 mg/kg body weight].
Healthy rabbits of both sexes were pretreated orally with a gyrase inhibitor (Baytril®) for one week. Ten animals pretreated in this way were not treated with bleomyin and served as control, and, on the day of exposure, the others were anaesthetized with a Ketanest®/Rompun® mixture, intubated intratracheally and ventilated mechanically. An ultrasonic nebulizer (MMAD 2.5 μm) was used to administer by inhalation exactly 1.8 U/kg of bodyweight of bleomycin under volume-controlled ventilation. After 4, 8, 16, 24, 32 and 64 days (in each case n≧5) post exposure, the animals were again anaesthetized, provided with an arterial access (right carotid artery) and underwent bodyweight-adapted ventilation via a tracheostomy in a volume-controlled method. The arterial pO2 and pCO2, and the static compliance of the lung were measured (by recording the intrathoracic pressure and with slow inflation/deflation manoeuvres). Subsequently, the lungs of these animals were dissected and perfused with a Krebs Hensefeit buffer. Under these conditions, the capillary filtraton coefficient (cfc) was then found from the weight gain of the organ after increasing the pulmonary venous pressure by 7.5 mmHg, and the peak ventilation pressure was found. After completion of these measurements, the left main bronchus was ligated in the end-inspiratory position and a bronchoalveolar lavage (BAL) was performed on the right lung. Subsequently, the large vessels and airways of the right lung were dissected off and the organ was homogenized. The left lung was perfusion-fixed with 4% formalin solution while maintaining a pressure gradient of 25 cm H2O and was then stored in 4% formalin until embedded. Firstly, the cells were removed from the BAL, counted and differentiated via a Papenheim stain. The cell-free BAL supernatant was then aliquoted and submitted to further analysis of the surfactant and coagulation properties and a determination of the matrix metallo proteinases (MMPs) and their inhibitors (TIMPs) and of soluble collagen. Bronchoalveolar deposition of 1.8 U/kg of bodyweight of bleomycin led initially to development of an ARDS-like event, with a massive restriction of gas exchange (paO2/FiO2 of >500 mmHg in the controls reduced to ˜110 mmHg on day 4), ground-glass opacities over all sections of the lung in the HRCT and an increase of about 5-fold in the capillary filtration coefficient (cfc). In the later phase of bleomycin-induced lung damage there was then development of pronounced fibrosis which could be confirmed on the basis of the increase in soluble collagen in the BAL and the hydroxyproline in the tissue, on the basis of the histological specimens and of the HRCT findings. […] Consistent with this, a pronounced increase in the extracellular matrix and an alveolar and also interstitial ingress of fibroblasts was observable in the histological sections. […]

Assay [2] has as its system patients with ILD displaying secondary PHT. Briefly: Arterial oxygen partial pressure (delta PaO2) in patients with ILD. In kind it is in vivo, human. The note with it: 7 patients with ILD; for arterial oxygen partial pressure (delta PaO2) / O2 saturation, increase: NO 20 ppm inhaled, sildenafil 50 mg oral. The source says:
FIG. 6: Result of determination of the arterial oxygen partial pressure (PaO2) on 7 patients with ILD displaying secondary PHT (pulmonary hypertension) measured as delta PaO2.
(§1) 7 patients with ILD underwent a Swan-Ganz catheter investigation with measurement of the ventilation/perfusion (V/Q) distribution (using the multiple inert gas elimination technique (MIGET)). After determination of the baseline parameters (haemodynamics and gas exchange), all the patients initially inhaled 20 ppm NO, followed by a second baseline period (10-15 min), and then PGI was infused (6 ng/kg bodyweight/min), again followed by a second baseline period (10-15 min) and then an oral dose of 50 mg of sildenafil was given (120-150 min follow-up). 5 of the 7 patients were controlled by continuous nasal oxygen therapy in order to reach an arterial oxygenation of >88%. The following parameters were measured under baseline conditions: mean pulmonary arterial pressure (mPAP) 39.6+/−2.8 mmHg and pulmonary vascular resistance index (PVRI) 1255+/−215 dyn*s*cm−5*m^2.

For assay [3], the system named is patients with chronic thromboembolism and displaying secondary PHT. Briefly: Arterial oxygen partial pressure in patients with chronic thromboembolism. It counts as in vivo, human. The note with it: 7 patients; for effect on arterial oxygen partial pressure: FIG. 4; for arterial oxygen partial pressure (PaO2), improvement: NO 20 ppm inhaled, sildenafil 50 mg oral. As to the method: FIG. 4: Result of measurement of the arterial oxygen partial pressure (PaO2) on 7 patients with chronic thromboembolism and displaying secondary PHT (pulmonary hypertension). The arterial oxygen partial pressure was improved by NO (inhaled) [20 ppm] and sildenafil (oral) [50 mg] by respectively 1.8% and 7.6%, whereas the oxygen saturation fell by 13% after administration of PGI (intravenous). In the same experiment, the vascular resistance was measured and determined as delta PVR by a right cardiac catheterization. The vascular resistance was reduced respectively by 25%, 19% and 21% after administration of PGI (intravenous) [6 ng/kg bodyweight/min], NO (inhaled) [20 ppm] and sildenafil (oral) [50 mg].
as §1, with “with CTEPH” for “with ILD”, “follow-up). 3” for “follow-up). 5”, “(mPAP) 52.1 +/−3.3 mmHg, cardiac index (CI) 2.2+/−0.1 |* min^−1*m^−2,” for “(mPAP) 39.6+/−2.8 mmHg and”, “(PVRI) 1703.8+/−129.5 […], arterial pO2 72.5+/−3.3 mmHg and mixed venous oxygen saturation (SvO2) of 63.4+/−2.2%.” for “(PVRI) 1255+/−215 dyn*s*cm−5*m^2.”

Assay [4] relates to patients with ILD (interstitial lung disease) displaying secondary PHT. Briefly: Shunting by MIGET in patients with ILD. It counts as in vivo, human. The note with it: 7 patients with ILD; for shunting / shunt perfusion (MIGET), level reached: baseline 7.2%, PGI i.v., NO 20 ppm inhaled, sildenafil 50 mg oral. As for the experimental part:
FIG. 5: Result of determination of the shunting on 7 patients with ILD (interstitial lung disease) displaying secondary PHT. The measurement took place by the inert gas exchange method (MIGET) [Wagner et al. J Appl Physiol. 1974;36:588-99]. The shunting was reduced to 5% and 4.8%, respectively, by NO (inhaled) [20 ppm] and sildenafil (oral) [50 mg]. The shunting was increased to 18% after administration of PGI (prostacyclin, intravenous) […]].
as §1

On to `[N]=O` [NO, nitric oxide], for which, in assay [1], the “effect on shunting” value is “reduced the shunting” and the “shunting (MIGET), level reached” value was found to be 9%. In assay [2], the “arterial oxygen partial pressure (delta PaO2) / O2 saturation, increase” value was 5% and 4.8%. Also, in assay [3], the “effect on arterial oxygen partial pressure” value is “not changed” and the “arterial oxygen partial pressure (PaO2), improvement” value is 1.8%. In addition, in assay [4], the “effect on shunting / ventilation/perfusion distribution” value is listed as “virtually unchanged; also recorded: no effect” and the “shunting / shunt perfusion (MIGET), level reached” value (“shunting / shunt perfusion (MIGET)” for short) was 5%.

Consider `CCCCC[C@H](O)/C=C/[C@@H]1[C@H]2C/C(=C/CCCC(=O)O)O[C@H]2C[C@H]1O` [PGI, prostacyclin], for which the “shunting (MIGET), level reached” value in assay [1] is on record as “about 30%”. Moreover, the “arterial oxygen partial pressure / oxygen saturation, decrease” value was 12.5% and 12% in assay [2] (PGI intravenous 6 ng/kg/min); 13% in assay [3] (PGI intravenous 6 ng/kg/min). The “shunting / shunt perfusion (MIGET)” value in assay [4] was 18% and ~20%.

Consider `CCCc1nn(C)c2c(=O)[nH]c(-c3cc(S(=O)(=O)N4CCN(C)CC4)ccc3OCC)nc12` [sildenafil, 5-[2-ethoxy-5-(4-methyl-1-piperazinyl-sulphonyl)phenyl]-1-methyl-3-n-propyl-1,6-dihydro-7H-pyrazolo[4,3-d]pyrimidin-7-one], for which, in assay [1], the “effect on shunting” value is “reduced the shunting even more than NO” and the “shunting (MIGET), level reached” value stood at 6%. Besides, the “arterial oxygen partial pressure (delta PaO2) / O2 saturation, increase” value in assay [2] was 15% and 13%. Moreover, in assay [3], the “effect on arterial oxygen partial pressure” value is recorded as “increased” and the “arterial oxygen partial pressure (PaO2), improvement” value is 7.6%. In assay [4], the “effect on shunting / ventilation/perfusion distribution” value is on record as “virtually unchanged; also recorded: no effect” and the “shunting / shunt perfusion (MIGET)” value came to 4.8%.
